The text below walks through data of ChEMBL document CHEMBL1154798, “Aminocaprophenone- and pyrrolidine-type alkaloids from the leaves of Ficus septica” (J Nat Prod, 2009).

Assay [1] can be described thus: Cytotoxicity against human ACC-MESO1 cells after 48 hrs by WST8 colorimetric assay. It counts as functional, cell-based. The following applies: ACC-MESO-1, 48 h. A general note: Tetrazolium assays rely on reduction of a dye to a coloured formazan, in cell work by metabolically active cells.
For another assay, the system named is HeLa. The assay can be described thus: Cytotoxicity against human HeLa cells after 48 hrs by WST8 colorimetric assay. Type of assay: functional, cell-based.

In general, IC50 refers to the concentration needed to halve the response being measured. High values mean weaker potency, low ones greater potency. With `COc1cc2c3c(c4ccc(OC)c(OC)c4c2cc1OC)[C@H](O)[C@@H]1CCC[N+]1([O-])C3` (stereo partly specified), the concentration for half-maximal inhibition (IC50) in assay [1] stood at 28 µM; in the assay with HeLa, 7.1 µM.
For `COc1cc(C(=O)CCCCCN(C)C)ccc1O` [FICUSEPTAMINE A], in that order: 160 µM and 57 µM.
In the case of `COc1ccc(C(=O)CCCCCN(C)C)cc1O` [FICUSEPTAMINE B], the IC50 in assay [1] was found to be 72 µM; in the assay with HeLa, 23 µM.
As for `COc1cc(C(=O)CC2CCC[N+]2(C)C)ccc1O` (stereo unspecified) [FICUSEPTAMINE C], the IC50 (in assay [1]; with HeLa) was over 160 µM each time.
In the case of `COc1cc(C(=O)CC2CCCN2C)ccc1O` (stereo unspecified) [PHYLLOSTERONE], the IC50 (in assay [1]; in the assay on HeLa) was over 160 µM throughout.
For `CC(=O)c1ccc(O)c(O[C@@H]2O[C@H](CO)[C@@H](O)[C@H](O)[C@H]2O)c1` [PUNGENIN], the IC50 (in assay [1]; in the assay on HeLa) was over 160 µM in each case.
As for `COc1ccc(C2=C(c3ccc(OC)c(OC)c3)CN3CCC[C@@H]3C2)cc1OC` [SEPTICINE], the IC50 in assay [1] turned out to be 63 µM; in the assay on HeLa, 38 µM.
The corresponding values for `COc1cc2c3c(c4cc(OC)c(OC)cc4c2cc1OC)CN1CCC[C@@H]1C3` [TYLOPHORINE] are 12 µM and 3.1 µM.
